In US11046699B2, “Pyrazolo-pyrimidin-amino-cycloalkyl compounds and their therapeutic uses” (RAPT THERAPEUTICS, INC., priority 2018, dated 2021):

Target: GCN2 (Homo sapiens, UniProt Q9P2K8)
Experiment: GCN2 enzymatic endpoint assay: phosphorylation of GFP-eIF2α measured by TR-FRET (Lanthascreen)
Type: biochemical
Settings: tested as described in Example 77; compound and/or hydrochloride, dihydrochloride or trifluoroacetic acid salt; read-out: IC 50 Activity
Summary of the method: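 Read-out is the TR-FRET ratio of acceptor signal at 520 nm to terbium donor at 495 nm, rising with antibody binding to phosphorylated GFP-eIF2α. Endpoint format: 2 μM ATP, 80 nM substrate, 90 minutes at room temperature, EDTA stop.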

GCN2, sequence (Q9P2K8 whole entry): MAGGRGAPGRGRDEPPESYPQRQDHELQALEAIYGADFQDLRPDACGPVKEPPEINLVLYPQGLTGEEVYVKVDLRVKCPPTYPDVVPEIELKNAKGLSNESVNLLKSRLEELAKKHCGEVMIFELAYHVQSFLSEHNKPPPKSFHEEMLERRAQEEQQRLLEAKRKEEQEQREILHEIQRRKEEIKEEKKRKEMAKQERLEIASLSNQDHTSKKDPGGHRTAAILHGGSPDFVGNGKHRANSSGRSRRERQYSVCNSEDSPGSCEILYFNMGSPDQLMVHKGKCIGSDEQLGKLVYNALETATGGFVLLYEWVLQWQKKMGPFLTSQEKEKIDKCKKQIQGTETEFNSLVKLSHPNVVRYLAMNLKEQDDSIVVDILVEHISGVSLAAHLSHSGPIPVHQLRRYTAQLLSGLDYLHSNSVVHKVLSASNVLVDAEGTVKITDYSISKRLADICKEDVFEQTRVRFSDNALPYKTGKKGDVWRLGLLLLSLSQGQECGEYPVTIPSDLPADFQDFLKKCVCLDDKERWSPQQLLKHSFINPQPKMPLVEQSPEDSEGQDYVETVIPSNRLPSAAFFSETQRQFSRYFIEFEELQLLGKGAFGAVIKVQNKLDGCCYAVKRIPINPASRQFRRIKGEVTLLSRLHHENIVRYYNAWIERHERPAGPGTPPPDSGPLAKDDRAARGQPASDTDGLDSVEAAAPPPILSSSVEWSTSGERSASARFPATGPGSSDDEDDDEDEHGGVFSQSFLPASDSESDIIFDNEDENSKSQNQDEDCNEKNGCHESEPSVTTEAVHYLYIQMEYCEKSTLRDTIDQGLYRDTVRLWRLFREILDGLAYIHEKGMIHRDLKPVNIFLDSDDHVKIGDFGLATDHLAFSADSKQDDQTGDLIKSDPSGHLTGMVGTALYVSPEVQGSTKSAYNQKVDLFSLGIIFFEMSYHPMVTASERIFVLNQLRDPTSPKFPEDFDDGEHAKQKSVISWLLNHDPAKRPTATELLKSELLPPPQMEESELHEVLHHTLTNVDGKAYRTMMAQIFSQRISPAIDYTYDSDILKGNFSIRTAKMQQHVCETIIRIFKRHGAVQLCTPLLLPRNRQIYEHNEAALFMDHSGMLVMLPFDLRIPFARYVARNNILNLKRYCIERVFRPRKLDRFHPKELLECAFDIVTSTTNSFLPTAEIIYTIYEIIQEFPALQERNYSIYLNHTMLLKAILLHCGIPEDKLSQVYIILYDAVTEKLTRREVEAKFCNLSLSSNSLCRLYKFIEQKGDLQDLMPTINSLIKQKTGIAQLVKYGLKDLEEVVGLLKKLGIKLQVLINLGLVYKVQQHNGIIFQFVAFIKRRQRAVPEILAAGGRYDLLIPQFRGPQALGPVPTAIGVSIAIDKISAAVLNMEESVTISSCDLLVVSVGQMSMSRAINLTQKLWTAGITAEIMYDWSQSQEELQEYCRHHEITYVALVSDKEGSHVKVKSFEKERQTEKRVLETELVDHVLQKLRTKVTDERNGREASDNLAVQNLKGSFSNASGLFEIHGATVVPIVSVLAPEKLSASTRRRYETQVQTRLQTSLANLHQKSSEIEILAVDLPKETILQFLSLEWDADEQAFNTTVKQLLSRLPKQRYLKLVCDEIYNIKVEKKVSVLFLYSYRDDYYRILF

IC50 [nM]	SMILES
25 to 200	Fc1cc(-n2nc(Br)c3cnc(NC4CCOC4)nc32)cc2cccnc12 (stereo not shown) [3-bromo-1-(8-fluoro-6-quinolyl)-N-tetrahydrofuran-3-yl-pyrazolo[3,4-d] pyrimidin-6-amine]
25 to 200	O=C([C@@H]1CC[C@@H](Nc2ncc3c(Br)nn(-c4cc(F)c5ncccc5c4)c3n2)C1)N1CCN2C(=O)COCC2C1 (stereo partly drawn) [8-((1R,3R)-3-((3-bromo-1-(8-fluoroquinolin-6-yl)-1H-pyrazolo[3,4-d]pyrimidin-6-yl)amino)cyclopentane-1-carbonyl)hexahydropyrazino [2,1-c][1,4]oxazin-4(3H)-one]
25 to 200	CNC(=O)[C@]1(C)CC[C@@H](Nc2ncc3c(Br)nn(-c4cc(CNCC(F)F)c5ncccc5c4)c3n2)C1 [(1R,3R)-3-[[3-bromo-1-[8-[(2,2-difluoroethylamino)methyl]-6-quinolyl]pyrazolo[3,4-d]pyrimidin-6-yl]amino]-N,1-dimethyl-cyclopentanecarboxamide]
25 to 200	CC(C)(O)CNC(=O)[C@@H]1CC[C@@H](Nc2ncc3c(Br)nn(-c4cc(F)c5ncccc5c4)c3n2)C1
25 to 200	CNC(=O)[C@@]1(C)CC[C@@H](Nc2ncc3c(Br)nn(-c4cc(C#N)c5ncccc5c4)c3n2)C1 [(1S,3R)-3-((3-bromo-1-(8-cyanoquinolin-6-yl)-1H-pyrazolo[3,4-d]pyrimidin-6-yl)amino)-N,1-dimethylcyclopentane-1-carboxamide]
< 25	CNC(=O)[C@]1(C)CC[C@@H](Nc2ncc3c(Br)nn(-c4cc(C(C)CO)c5ncccc5c4)c3n2)C1 (stereo partly drawn) [(1R,3R)-3-[[3-bromo-1-[8-(2-hydroxy-1-methyl-ethyl)-6-quinolyl]pyrazolo[3,4-d]pyrimidin-6-yl]amino]-N,1-dimethyl-cyclopentanecarboxamide]
< 25	CNC(=O)[C@]1(C)CC[C@@H](Nc2ncc3c(Br)nn(-c4cc([C@H](C)CO)c5ncccc5c4)c3n2)C1 [(1R,3R)-3-[[3-bromo-1-[8-[(1S)-2-hydroxy-1-methyl-ethyl]-6-quinolyl]pyrazolo[3,4-d]pyrimidin-6-yl]amino]-N,1-dimethyl-cyclopentanecarboxamide]
25 to 200	O=C(CO)N1CCN(C(=O)[C@@H]2CC[C@@H](Nc3ncc4c(Br)nn(-c5cc(F)c6ncccc6c5)c4n3)C2)CC1 [1-(4-((1R,3R)-3-((3-bromo-1-(8-fluoroquinolin-6-yl)-1H-pyrazolo[3,4-d]pyrimidin-6-yl)amino)cyclopentane-1-carbonyl)piperazin-1-yl)-2-hydroxyethan-1-one]
25 to 200	CN(CCNC(=O)[C@@H]1CC[C@@H](Nc2ncc3c(Br)nn(-c4cc(F)c5ncccc5c4)c3n2)C1)CC(=O)O [N-(2-((1R,3R)-3-((3-bromo-1-(8-fluoroquinolin-6-yl)-1H-pyrazolo[3,4-d]pyrimidin-6-yl)amino)cyclopentane-1-carboxamido)ethyl)-N-methylglycine]
25 to 200	Cn1cccc(NC(=O)[C@@H]2CC[C@@H](Nc3ncc4c(Br)nn(-c5cc(F)c6ncccc6c5)c4n3)C2)c1=O [(1R,3R)-3-[[3-bromo-1-(8-fluoro-6-quinolyl)pyrazolo[3,4-d]pyrimidin-6-yl]amino]-N-(1-methyl-2-oxo-3-pyridyl)cyclopentane-carboxamide]
< 25	N#Cc1cc(-n2nc(Br)c3cnc(N[C@@H]4CC[C@@H](C(=O)NCC5(F)CNC5)C4)nc32)cc2cccnc12
25 to 200	O=C1OCC[C@@]12CC[C@@H](Nc1ncc3c(Br)nn(-c4cc(F)c5ncccc5c4)c3n1)C2 [(5S,8R)-8-[[3-bromo-1-(8-fluoro-6-quinolyl)pyrazolo[3,4-d]pyrimidin-6-yl]amino]-2-oxaspiro[4.4]nonan-1-one]

The next lines start with the molecule.

SMILES	IC50 [nM]
CNC(=O)[C@]1(C)CC[C@@H](Nc2ncc3c(Br)nn(-c4ccc5nccc(P(C)(C)=O)c5c4)c3n2)C1 [(1R,3R)-3-[[3-bromo-1-(4-dimethyl-phosphoryl-6-quinolyl)pyrazolo[3,4-d]pyrimidin-6-yl]amino]-N,1-dimethyl-cyclopentanecarboxamide]	25 to 200
CNC(=O)C1(C)CC[C@@H](Nc2ncc3c(Br)nn(-c4ccc(-c5nc(C)no5)cc4)c3n2)C1 (stereo partly drawn) [(3R)-3-[[3-bromo-1-[4-(3-methyl-1,2,4-oxadiazol-5-yl)phenyl]pyrazolo[3,4-d]pyrimidin-6-yl]amino]-N,1-dimethyl-cyclopentanecarboxamide]	25 to 200
CNC(=O)[C@]1(C)CC[C@@H](Nc2ncc3c(Br)nn(-c4ccc(-c5ncco5)c(C5CCNCC5)c4)c3n2)C1 [(1R,3R)-3-[[3-bromo-1-[4-oxazol-2-yl-3-(4-piperidyl)phenyl]pyrazolo[3,4-d]pyrimidin-6-yl]amino]-N,1-dimethyl-cyclopentanecarboxamide]	25 to 200
Cc1nnc(-c2ccc(-n3nc(Br)c4cnc(N[C@@H]5CC[C@@H](NC(=O)[C@H]6CCCCN6)C5)nc43)cc2)s1	25 to 200
Cc1nnc(-c2ccc(-n3nc(Br)c4cnc(N[C@@H]5CC[C@@H](NC(=O)C(C)C)C5)nc43)cc2CCC#N)s1 [N-[(1R,3R)-3-[[3-bromo-1-[3-(2-cyanoethyl)-4-(5-methyl-1,3,4-thiadiazol-2-yl)phenyl]pyrazolo[3,4-d]pyrimidin-6-yl]amino]cyclopentyl]-2-methyl-propanamide]	500 to 1000
N#Cc1cc(-n2nc(Br)c3cnc(N[C@@H]4CC[C@@H](C(=O)N[C@@H]5CCNC5)C4)nc32)cc2cccnc12 [(1R,3R)-3-((3-bromo-1-(8-cyanoquinolin-6-yl)-1H-pyrazolo[3,4-d]pyrimidin-6-yl)amino)-N-((R)-pyrrolidin-3-yl)cyclopentane-1-carboxamide]	< 25
CNC(=O)[C@]1(C)CC[C@@H](Nc2ncc3c(Br)nn(-c4ccc(-c5cnc(C)o5)cc4)c3n2)C1 [(1R,3R)-3-[[3-bromo-1-[4-(2-methyloxazol-5-yl)phenyl]pyrazolo[3,4-d]pyrimidin-6-yl]amino]-N,1-dimethyl-cyclopentane-carboxamide]	25 to 200
Cc1nnc(-c2ccc(-n3nc(Br)c4cnc(N[C@@H]5CC[C@@H](C(=O)N6CCN(C)C(=O)C6)C5)nc43)cc2)o1 [4-((1R,3R)-3-((3-bromo-1-(4-(5-methyl-1,3,4-oxadiazol-2-yl)phenyl)-1H-pyrazolo[3,4-d]pyrimidin-6-yl)amino)cyclopentane-1-carbonyl)-1-methylpiperazin-2-one]	25 to 200
CNC(=O)[C@]1(C)CC[C@@H](Nc2ncc3c(Br)nn(-c4cc(Cl)cc(C#N)c4)c3n2)C1 [(1R,3R)-3-[[3-bromo-1-(3-chloro-5-cyano-phenyl)pyrazolo[3,4-d]pyrimidin-6-yl]amino]-N,1-dimethyl-cyclopentanecarboxamide]	25 to 200
CNC(=O)[C@]1(C)CC[C@@H](Nc2ncc3c(Br)nn(-c4cc(CN)cc(C(F)(F)F)c4)c3n2)C1 [(1R,3R)-3-[[1-[3-(aminomethyl)-5-(trifluoromethyl)phenyl]-3-bromo-pyrazolo[3,4-d]pyrimidin-6-yl]amino]-N,1-dimethyl-cyclopentanecarboxamide; 2,2,2-trifluoroacetic acid]	25 to 200
C[C@@H]1CN(C(=O)[C@@H]2CC[C@@H](Nc3ncc4c(Br)nn(-c5ccc6ncccc6c5)c4n3)C2)C[C@@H](C)O1 [((1R,3R)-3-((3-bromo-1-(quinolin-6-yl)-1H-pyrazolo[3,4-d]pyrimidin-6-yl)amino)cyclo-pentyl)((2R,6R)-2,6-dimethylmorpholino) methanone]	25 to 200
C[C@@]1(O)CC[C@@H](Nc2ncc3c(Br)nn(-c4cc(CCN)c5ncccc5c4)c3n2)C1	< 25
CNC(=O)[C@]1(C)CC[C@@H](Nc2ncc3c(Br)nn(-c4cc(Cl)c(F)c(CN)c4)c3n2)C1	25 to 200
CNC(=O)[C@]1(C)CC[C@@H](Nc2ncc3c(Br)nn(-c4ccc(-c5nnc(CCOC)s5)cc4)c3n2)C1	25 to 200
CN(CCNC(=O)[C@@H]1CC[C@@H](Nc2ncc3c(Br)nn(-c4ccc5ncccc5c4)c3n2)C1)CC(=O)O [N-(2-((1R,3R)-3-((3-bromo-1-(quinolin-6-yl)-1H-pyrazolo[3,4-d]pyrimidin-6-yl)amino)cyclopentane-1-carboxamido)ethyl)-N-methylglycine]	25 to 200
Cc1nnc(-c2ccc(-n3nc(Br)c4cnc(N[C@@H]5CC[C@@](C)(C(=O)N6CCOCC6)C5)nc43)cc2)s1 [[(1R,3R)-3-[[3-bromo-1-[4-(5-methyl-1,3,4-thiadiazol-2-yl)phenyl]pyrazolo[3,4-d]pyrimidin-6-yl]amino]-1-methyl-cyclopentyl]-morpholino-methanone]	25 to 200
CNC(=O)[C@]1(C)CC[C@@H](Nc2ncc3c(Br)nn(-c4ccc(-c5noc(C)n5)cc4)c3n2)C1 [(1R,3R)-3-[[3-bromo-1-[4-(5-methyl-1,2,4-oxadiazol-3-yl)phenyl]pyrazolo [3,4-d]pyrimidin-6-yl]amino]-N,1-dimethyl-cyclopentanecarboxamide]	25 to 200
Cc1nnc(-c2ccc(-n3nc(Br)c4cnc(N[C@@H]5CCC(C)(CP(C)(C)=O)C5)nc43)cc2CCC#N)s1 (stereo partly shown)	25 to 200
CNS(=O)(=O)C1CC[C@@H](Nc2ncc3c(Br)nn(-c4ccc(-c5nnc(C)s5)cc4)c3n2)C1 (stereo partly drawn) [(3R)-3-[[3-bromo-1-[4-(5-methyl-1,3,4-thiadiazol-2-yl)phenyl]pyrazolo[3,4-d]pyrimidin-6-yl]amino]-N-methyl-cyclopentanesulfonamide]	25 to 200
CNC(=O)[C@]1(C)CC[C@@H](Nc2ncc3c(Br)nn(-c4cc(CNS(=O)(=O)C5COC5)c5nccnc5c4)c3n2)C1 [(1R,3R)-3-[[3-bromo-1-[8-[(oxetan-3-ylsulfonylamino)methyl]quinoxalin-6-yl]pyrazolo[3,4-d]pyrimidin-6-yl]amino]-N,1-dimethyl-cyclopentane-carboxamide]	25 to 200
CNC(=O)[C@]1(C)CC[C@@H](Nc2ncc3c(Br)nn(-c4ccc(-c5nnc(C)o5)c(CCN)c4)c3n2)C1 [(1R,3R)-3-[[1-[3-(2-aminoethyl)-4-(5-methyl-1,3,4-oxadiazol-2-yl)phenyl]-3-bromopyrazolo[3,4-d]pyrimidin-6-yl]amino]-N,1-dimethyl-cyclopentane-carboxamide]	25 to 200
CNC(=O)[C@]1(C)CC[C@@H](Nc2ncc3c(Br)nn(-c4cc(Cl)cc(CCC#N)c4)c3n2)C1	25 to 200
